# Tested on: Saccharomyces cerevisiae ABC16-Green Monster
# Assay: growth inhibition at single dose (up to 150 µM), below the 70% cut-off for dose-response; higher = more potent
# Settings: 18 h; 30 °C; YPD
# How it was run: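 Percent growth inhibition is the reported value. Drug-sensitive S. cerevisiae ABC16-Green Monster cultures in log phase (OD600 0.1–0.2), 200 µl per well in 96-well plates, received each library compound once at 150 µM in biological duplicates, with untreated cultures run alongside. Growth was followed by OD600 at 0 h and after 18 h at 30 °C. Dose-response was not done for compounds below 70% in both replicates.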
row,SMILES,growth inhibition at single dose
1,CNC(=O)c1cc(S(=O)(=O)N2CCN(c3ccccn3)CC2)cs1,< 70%
2,CCNC(=O)c1nn(CC2CC2)c2c1CN(C(=O)c1cc(-c3ccccc3F)n[nH]1)CC2,< 70%
3,Cc1c(C)c(C)c(S(=O)(=O)N2CCN(C(C)C(=O)NC3CC3)CC2)c(C)c1C (centres undefined),< 70%
4,Oc1ccc(Br)cc1CN1CCN(Cc2cccc(F)c2)CC1,< 70%
5,CCOC(=O)c1cn(CC)c2cc(N3CCCCC3)c(F)cc2c1=O,< 70%
6,COc1ccc2nc(C)cc(OCC(=O)Nc3ccccc3OC)c2c1,< 70%
7,Cc1cc(C(=O)CSc2nc3ccccc3[nH]2)c(C)n1CC1CCCO1 (centres undefined),< 70%
8,Cc1ccc(CC(=O)NCc2ccc(C#N)cc2)cc1,< 70%
9,COc1ccc(-c2nc(N3CCN(C(=O)C4CCCCC4)CC3)c3c4c(sc3n2)CCCC4)cc1,< 70%
10,CCN(CC)S(=O)(=O)c1ccc(-c2csc(Nc3ccc(C)c(C)c3)n2)cc1,< 70%
11,CCC(=O)Nc1ccccc1C(=O)Nc1ccccn1,< 70%
12,OC(CNC1CCCCC1)Cn1c2ccccc2c2ccccc21 (centres undefined),< 70%
13,N#C/C(=N\Nc1cc(C(F)(F)F)ccc1OCC(F)(F)F)S(=O)(=O)c1ccccc1,< 70%
14,COc1ccc2nccc(NC(=O)C3CCN(CCc4ccc(Cl)cc4)CC3)c2n1,< 70%
15,O=C(COc1ccc2[nH]c3ccccc3c(=O)c2c1)N1c2ccccc2OCC1c1ccccc1 (centres undefined),< 70%
16,O=C(Nc1ccc(-c2nc3ccccc3[nH]2)cc1)C1CCC1,< 70%
17,C=CCNC(=O)C(C)Sc1nnc(-c2ccc(C)cc2)c(-c2ccc(C)cc2)n1 (centres undefined),< 70%
18,O=c1cc(NC2CCN(CCCc3ccccc3)CC2)c2cc(Cl)ccc2o1,< 70%
19,Nc1ccc(-c2nc3cc(Oc4ccc(Oc5ccc6[nH]c(-c7ccc(N)cc7)nc6c5)cc4)ccc3[nH]2)cc1,< 70%
20,COc1ccc(N2CCN(C(CNC(=O)CC(C)(C)C)c3ccc4c(c3)OCO4)CC2)cc1 (centres undefined),< 70%
21,COc1ccc(-c2csc3ncnc(Sc4nnc(-c5cccc(C)c5)n4CC(N)=O)c23)cc1,< 70%
22,CCn1c(SCC(=O)Nc2cc(C(F)(F)F)ccc2Cl)nc2ccccc2c1=O,< 70%
23,OC(Cn1nnc2ccccc21)Cn1c2ccc(Br)cc2c2cc(Br)ccc21 (centres undefined),< 70%

row,SMILES,growth inhibition at single dose
1,C[n+]1c2ccccc2nc2ccc(NCCO)cc21,< 70%
2,CCCCOC(=O)c1ccc(Nc2cc(C)nc3ccc(OC)cc23)cc1,< 70%
3,CCN(CC)S(=O)(=O)N1CCN(C(=O)c2[nH]nc3ccccc23)CC1,< 70%
4,CS(=O)(=O)c1ccc(C(=O)N(CC2CCCO2)c2nc3ccccc3s2)cc1[N+](=O)[O-] (centres undefined),< 70%
5,Cc1cc(N2CCN(C)CC2)n2ncc(-c3ccc(F)cc3)c2n1,< 70%
6,CCCS(=O)(=O)c1cnc(C2COc3ccccc3O2)nc1N (centres undefined),< 70%
7,CN(C)CCCNc1c2ccccc2nc2ccccc12,< 70%
8,CCOc1ccc2nc(C)cc(Nc3ccc(N(C)C)cc3)c2c1,< 70%
9,COCCn1c(C)cc(C(=O)CSc2nnc(C)s2)c1C,< 70%
10,CN(Cc1ccc(C(N)=O)cc1)c1ncnc2ccccc12,< 70%
11,COc1ccc(Nc2ccccc2NC(=O)c2ccc(O)nc2)cc1,< 70%
12,Cc1nc(C(=O)N2CCc3c(c(C(=O)NC4CCCC4)nn3CC(C)C)C2)cs1,< 70%
13,O=C(N/N=C/c1ccc(O)cc1O)c1ccc[n+]([O-])c1,< 70%
14,COc1ccc(CCN2C(=O)c3[nH]nc(-c4cc(Cl)c(C)cc4O)c3C2c2ccccc2F)cc1 (centres undefined),< 70%
15,CC(C)(C)c1ccc(O)c(CNC2CCCCC2)c1,< 70%
16,CCN(CC(=O)Nc1ccccc1-c1ccccc1)Cc1nc(=O)c2ccccc2[nH]1,< 70%
17,CN(CC(=O)NC1CC1)C(=O)CNc1ccccc1Oc1ccccc1,< 70%
18,Cc1cc(C(=O)COC(=O)c2ccccc2O)c(C)n1CC1CCCO1 (centres undefined),< 70%
19,COc1ccc(N(Cc2nc(-c3cccs3)oc2C)S(=O)(=O)c2cccs2)cc1,< 70%
20,Cc1nc(C(=O)N2CCc3c(c(C(=O)NCc4ccccn4)nn3CCc3ccccc3)C2)cs1,< 70%
21,CCc1ccc(C(NCc2nc(N)nc(N(C)C)n2)C(C)C)cc1 (centres undefined),< 70%
22,Cc1cc([N+](=O)[O-])cc(S(=O)(=O)N(Cc2ccc(C(=O)NC3CC3)cc2)C2CC2)c1C,< 70%
23,CO/C=C(/C(=O)OC)c1ccccc1Oc1cc(Oc2ccccc2C#N)ncn1,< 70%

row,SMILES,growth inhibition at single dose
1,O=C1N/C(=N\C2CCCC2)S/C1=C\c1ccc2c(c1)OCCO2,< 70%
2,Cc1cc(C(=O)COC(=O)c2[nH]nc3ccccc23)c(C)n1Cc1cccs1,< 70%
3,Cc1ccc(Nc2nccc(C(F)(F)F)n2)cc1S(=O)(=O)N(C)C,< 70%
4,O=C(Nc1ccc(N2CCCCC2)c(Cl)c1)c1ccc(Br)o1,< 70%
5,CCOc1cc(Br)c(C(C)NC(=O)c2cccc(OC)c2)cc1OCC (centres undefined),< 70%
6,O=C(Cn1nnc2ccccc2c1=O)c1ccc(C2CCCCC2)cc1,< 70%
7,Cc1cc(Nc2ccncc2)n2nc(C)c(-c3ccccc3Cl)c2n1,< 70%
8,COc1ccc(C(=O)C2CC2c2ccc(Cl)cc2)cc1 (centres undefined),< 70%
9,Cc1nn(Cc2ccccc2)c(Cl)c1/C=C/C(=O)OC(C)C(=O)N1CCCC1 (centres undefined),< 70%
10,COc1ccc(-c2nn(C(C)C)c3ncnc(N)c23)cc1OC,< 70%
11,O=C(NC1CCN(Cc2ccccc2)CC1)c1cc(-c2ccncc2)nc2ccc(Cl)cc12,< 70%
12,O=C(NCCN1CCCC1)c1cc(NCCCCN2CCC(F)(F)CC2)nc2ccc(Cl)cc12,< 70%
13,O=C(Nc1ccccc1C(=O)Nc1nnc(C(F)(F)F)s1)c1ccccc1,< 70%
14,Nc1nc(Nc2cccc(F)c2)nc2ccccc12,< 70%
15,CNc1snc(C)c1C(=O)N(C)Cc1ccc(C(C)C)cc1,< 70%
16,c1cc(C2=NCCN2)cc(-c2cc(-c3ccc(C4=NCCN4)cc3)no2)c1,< 70%
17,CCc1c(C)c(=N)c2ccccc2n1C,< 70%
18,CCn1c2ccccc2c2cc(NC(C)C(=O)N3CCNC3=O)ccc21 (centres undefined),< 70%
19,Cn1/c(=N/C(=O)c2ccc(=O)[nH]c2)sc2ccccc21,< 70%
20,Cc1cc(C(=O)NCC#Cc2cccc(C(F)(F)F)c2)on1,< 70%
21,CCCNC(=O)N1CCC2(CC1)CC(=O)c1cc(C)ccc1O2,< 70%
22,Cc1ccccc1OCCSc1nc2ccc(NC(=O)c3cccs3)cc2s1,< 70%
23,CC1=Nc2ccc(Cl)cc2C(c2ccccc2)N1CCNC(=O)CN(C)C (centres undefined),< 70%
